According to US10155021B2, “Antimicrobial 4-oxoquinolizines” (Emergent Product Development Gaithersburg Inc., priority 2011, dated 2018):
Converted amounts (≈) assume the structure as drawn. Like-named read-outs stand apart in the source and are kept apart here.

What was measured:
[1] = tested on: Acinetobacter spp. H064200250; experiment: MIC determination for Acinetobacter strains (Example 3); assay type: cell-based, Acinetobacter sp.; details: LEV R, CIP R, MRP R, IMP I
A. baumannii A472 [2] = experiment: Preliminary MBC without and with sub-inhibitory polymyxin B (Example 4); assay type: cell-based, Acinetobacter baumannii; details: Acinetobacter baumannii, A472, A. baumannii A472, without polymyxin B, read-out: MBC without PB
A. baumannii ATCC 19606 = experiment: MIC without and with sub-inhibitory polymyxin B (Example 4); assay type: cell-based, Acinetobacter baumannii; details: Acinetobacter baumannii, ATCC19606, A. baumannii ATCC 19606; without polymyxin B; 2nd experiment; second reading marked *, mark not explained; read-out: MIC without PB, value in parentheses marked *
[3] = tested on: 11 strains of A. baumannii and one strain of Acinetobacter sp.; experiment: Preliminary MBC without and with sub-inhibitory polymyxin B, whole panel (Example 4; also strains not listed separately); assay type: cell-based; details: Acinetobacter baumannii, NCTC13301, A. baumannii NCTC 13301, without polymyxin B, 2nd experiment, read-out: MBC without PB
A. baumannii A390 [4] = experiment: MIC without and with sub-inhibitory polymyxin B (Example 4); assay type: cell-based, Acinetobacter baumannii; details: Acinetobacter baumannii, A390, A. baumannii A390, without polymyxin B, read-out: MIC without PB
A. baumannii A329 = experiment: as above; assay type: cell-based, Acinetobacter baumannii; details: Acinetobacter baumannii, A329, read-out: MIC +0.06 μg/ml PB, read with alamar blue, A. baumannii A329; +0.06 μg/ml polymyxin B; 2nd experiment; MIC read with alamar blue
[5] = tested on: resistant strains of A. baumannii and one strain of Acinetobacter sp.; experiment: MIC without and with sub-inhibitory polymyxin B, whole panel / MIC ranges (Example 4; also strains not listed separately); assay type: cell-based; details: Acinetobacter baumannii
A. baumannii A390 [6] = experiment: MIC determination for Acinetobacter strains (Example 3); assay type: cell-based; details: LEV R, CIP R, MRP R, IPM I, AMK R, TET I
[7] = tested on: Acinetobacter sp. (H064200250); experiment: MIC without and with sub-inhibitory polymyxin B (Example 4); assay type: cell-based; details: Acinetobacter, without polymyxin B, read-out: MIC without PB
A. baumannii A473 [8] = experiment: MIC determination for Acinetobacter strains (Example 3); assay type: cell-based; details: LEV R, CIP R, MRP R, IMP R, AMK R, TET R
A. baumannii A472 [9] = experiment: as above; assay type: cell-based; details: LEV R, CIP R, MRP I, IMP I, AMK R, TET R
A. baumannii A387 [10] = experiment: MIC without and with sub-inhibitory polymyxin B (Example 4); assay type: cell-based, Acinetobacter baumannii; details: Acinetobacter baumannii, A387, A. baumannii A387; without polymyxin B; 2nd experiment; visual reading; read-out: MIC without PB
A. baumannii A 401 = experiment: MIC determination for Acinetobacter strains (Example 3); assay type: cell-based; details: A401, LEV R, CIP R, AMK R, TET R
A. baumannii A401 [11] = experiment: Preliminary MBC without and with sub-inhibitory polymyxin B (Example 4); assay type: cell-based, Acinetobacter baumannii; details: Acinetobacter baumannii, A401, A baumannii A 401; without polymyxin B; preliminary MBC; 1st experiment; read-out: MBC without PB
A. baumannii A473 [12] = experiment: as above; assay type: cell-based, Acinetobacter baumannii; details: Acinetobacter baumannii, A473, A. baumannii A473, without polymyxin B, read-out: MBC without PB
A. baumannii A489 [13] = experiment: MIC without and with sub-inhibitory polymyxin B (Example 4); assay type: cell-based, Acinetobacter baumannii; details: Acinetobacter baumannii, A489, A. baumannii A489, without polymyxin B
[14] = tested on: Acinetobacter sp. (H064200250); experiment: Preliminary MBC without and with sub-inhibitory polymyxin B (Example 4); assay type: cell-based; details: Acinetobacter, without polymyxin B, preliminary MBC, read-out: MBC without PB
Method: The plates were incubated for 18-20 hours at 37° C. The MBC was read as the lowest concentration at which colony growth was ca. 90% less than the positive control (i.e. usually where single colonies or no colonies were observed).

A. baumannii A387 [15] = experiment: as above; assay type: cell-based, Acinetobacter baumannii; details: Acinetobacter baumannii, A387, A. baumannii A387, without polymyxin B, 2nd experiment, read-out: MBC without PB
A. baumannii A472 [16] = experiment: MIC without and with sub-inhibitory polymyxin B (Example 4); assay type: cell-based, Acinetobacter baumannii; details: for MIC: Acinetobacter baumannii, A472, A. baumannii A472, without polymyxin B, read-out: MIC without PB
A. baumannii A489 [17] = experiment: Preliminary MBC without and with sub-inhibitory polymyxin B (Example 4); assay type: cell-based, Acinetobacter baumannii; details: Acinetobacter baumannii, A489, A. baumannii A489, without polymyxin B, read-out: MBC without PB
A. baumannii A473 [18] = experiment: MIC without and with sub-inhibitory polymyxin B (Example 4); assay type: cell-based, Acinetobacter baumannii; details: Acinetobacter baumannii, A473, A. baumannii A473, without polymyxin B
A. baumannii A489 [19] = experiment: MIC determination for Acinetobacter strains (Example 3); assay type: cell-based; details: LEV R, CIP R, MRP R, IMP R, AMK R, TET R
A. baumannii A401 [20] = experiment: MIC without and with sub-inhibitory polymyxin B (Example 4); assay type: cell-based, Acinetobacter baumannii; details: Acinetobacter baumannii, A401, A baumannii A 401, without polymyxin B, read-out: MIC without PB
[21] = Acinetobacter spp. H064200250, 1st experiment
[22] = 1st experiment, read-out: MIC without PB
[23] = 2nd experiment, MIC read with alamar blue, read-out: MIC without PB, read with alamar blue
[24] = 2nd experiment, visual reading, read-out: MIC without PB

SMILES: C[C@@H](O)[C@H]1C(=O)N2C(C(=O)O)=C(S[C@@H]3CN[C@H](C(=O)N(C)C)C3)[C@H](C)[C@H]12 [Meropenem, reference compound]
- MIC [1]: 32 µg/mL (≈ 83.4 µM)
- MBC (A. baumannii A472 [2]; 1st experiment): 8 µg/mL (≈ 20.9 µM)
- MBC (A. baumannii A472 [2]; 2nd experiment): 8 µg/mL (≈ 20.9 µM)
- MIC (A. baumannii ATCC 19606): 64 µg/mL (≈ 167 µM)
- MBC [3]: 64 µg/mL (≈ 167 µM)
- MIC (A. baumannii A390 [4]; 1st experiment): 32 µg/mL (≈ 83.4 µM)
- MIC (A. baumannii A390 [4]; 2nd experiment, visual reading): 32 µg/mL (≈ 83.4 µM)
- MIC (A. baumannii A329): 64 µg/mL
- MIC ([5]; NCTC13301, A. baumannii NCTC 13301, without polymyxin B, 1st experiment, read-out: MIC without PB): 32 µg/mL (≈ 83.4 µM)
- MIC ([5]; NCTC13301, A. baumannii NCTC 13301, without polymyxin B, 2nd experiment, visual reading, read-out: MIC without PB): 64 µg/mL (≈ 167 µM)
- MIC ([5]; read-out: MIC range without PB 01-10-2008 n = 8, without polymyxin B, 1st experiment, 8 strains): 1 to 32 µg/mL (≈ 2.61 to 83.4 µM)
- MIC (A. baumannii A390 [6]): 32 µg/mL (≈ 83.4 µM)
- MIC ([7]; Acinetobacter spp. H064200250 (OXA51), 2nd experiment, visual reading): 16 µg/mL (≈ 41.7 µM)
- MIC [7, 21]: 32 µg/mL (≈ 83.4 µM)
- MIC (A. baumannii A473 [8]): 16 µg/mL (≈ 41.7 µM)
- MIC (A. baumannii A472 [9]): 8 µg/mL (≈ 20.9 µM)
- MIC (A. baumannii A387 [10]): 8 µg/mL (≈ 20.9 µM)
- MIC (A. baumannii A 401): 32 µg/mL (≈ 83.4 µM)
- MBC (A. baumannii A401 [11]): 16 µg/mL (≈ 41.7 µM)
- MBC (A. baumannii A473 [12]; 1st experiment): 64 µg/mL (≈ 167 µM)
- MBC (A. baumannii A473 [12]; 2nd experiment): 16 µg/mL (≈ 41.7 µM)
- MIC (A. baumannii A489 [13]; [22]): 16 µg/mL (≈ 41.7 µM)
- MIC (A. baumannii A489 [13]; [23]): 32 µg/mL (≈ 83.4 µM)
- MIC (A. baumannii A489 [13]; [24]): 16 µg/mL (≈ 41.7 µM)
- MBC ([14]; Acinetobacter spp. H064200250 (OXA51), 2nd experiment): 16 µg/mL (≈ 41.7 µM)
- MBC [14, 21]: 16 µg/mL (≈ 41.7 µM)
- MBC (A. baumannii A387 [15]): 8 µg/mL (≈ 20.9 µM)
- MIC ratio without/with polymyxin B (A. baumannii A472 [16]; A. baumannii A472, ratio MIC without PB to MIC + PB, PB […], 2nd experiment): ≥ 64 µg/mL
- MIC (A. baumannii A472 [16]; 1st experiment): 8 µg/mL (≈ 20.9 µM)
- MIC (A. baumannii A472 [16]; 2nd experiment, visual reading): 8 µg/mL (≈ 20.9 µM)
- MBC (A. baumannii A489 [17]; 1st experiment): 8 µg/mL (≈ 20.9 µM)
- MBC (A. baumannii A489 [17]; 2nd experiment): 16 µg/mL (≈ 41.7 µM)
- MIC (A. baumannii A473 [18]; [22]): 16 µg/mL (≈ 41.7 µM)
- MIC (A. baumannii A473 [18]; [23]): 32 µg/mL (≈ 83.4 µM)
- MIC (A. baumannii A473 [18]; [24]): 16 µg/mL (≈ 41.7 µM)
- MIC (A. baumannii A489 [19]): 16 µg/mL (≈ 41.7 µM)
- MIC (A. baumannii A401 [20]; 1st experiment): 32 µg/mL (≈ 83.4 µM)
- MIC (A. baumannii A401 [20]; 2nd experiment, visual reading): 16 µg/mL (≈ 41.7 µM)
